{"source": "patent US20050267016A1", "about": "“CD-10 activated prodrug compounds” (priority 2001, published 2005)", "key": {"[1]": {"test_system": "prostate carcinoma LNCaP tumors", "settings": "for mean tumor weight of all mice when terminated: calculated, not shown; for Cancer Endpt.: tumor 1.5 g", "procedure": "The mice were weighed and tumors were measured (by caliper) at least once a week prior to start of dosing (Day 0), then twice a week during the study. Immediately before the start of dosing (Study Day −2 to Day 0), mice were randomized to various groups based on the weight of the tumors. […] Mice were euthanized after the tumors reached a cutoff weight of 1.5 g (cancer endpoint), or when mice suffered over 25% weight loss (toxic endpoint). Studies were terminated at Day 60."}, "[2]": {"test_system": "CD10 transfected CHO cells, Clone #5", "assay": "3H thymidine proliferation assay, CD10 transfected CHO Clone #5", "settings": "Cricetulus griseus, read-out: IC50 Clone #5", "protocol": "(§2) The fully assembled coding region was sub-cloned into a mammalian expression vector, downstream of the hCMV-MIE promoter. DNA sequence analysis confirmed sequence identity with the coding sequence of human CD10 (Genbank accession number Y00811). The expression plasmid was linearized and stably transfected into CHO—S cells. CD10 expressing transfectant clones were selected under 500 ug/mL of hygromycin and screened by flow cytometry for cell-surface CD10 expression using a commercially available anti-CD10-FITC antibody."}, "[3]": {"test_system": "CD10 transfected CHO cells, DB4", "assay": "3H thymidine proliferation assay, CD10 transfected CHO DB4", "protocol": "as §2"}, "[4]": {"test_system": "normal mice", "settings": "mouse, in vivo; cited from earlier work"}, "[5]": {"test_system": "Parental CHO cells", "assay": "3H thymidine proliferation assay, parental CHO", "format": "cell-based, Chinese Hamster", "settings": "for IC50: Cricetulus griseus; for Ratio Suc-β-Ala-Ile-Ala-Leu/Dox: Parental CHO, ratio of IC50"}, "[6]": {"assay": "in vivo", "settings": "female, ICR, mouse, iv, 10 umol/kg", "protocol": "(§3) Plasma was obtained from three individual animals in each group at 5 minutes, 1, 2, 4, or 6 hr."}, "[7]": {"test_system": "CD10 transfected CHO cells, Clone #3", "assay": "3H thymidine proliferation assay, CD10 transfected CHO Clone #3", "format": "cell-based, Chinese Hamster", "settings": "Cricetulus griseus, Table 25", "protocol": "as §2"}, "[8]": {"test_system": "LNCaP tumors", "assay": "LNCaP xenograft in SCID mice, Q6DX2 (Example 24)", "format": "in vivo, CB17.SCID mice", "design": "key to Tumor Weight: tumor weight in mg", "procedure": "The mean tumor weight was approximately 200 mg at Day 0. […] Studies were terminated at Day 60."}, "[9]": {"test_system": "HT-29 (colon carcinoma) cells", "assay": "cells", "format": "cell-based, human", "settings": "48 hours total incubation, read-out: IC50 HT29", "procedure": "Adherent cells, LNCaP (prostate carcinoma), HT-29 (colon carcinoma) and PC-3 (prostate carcinoma), were cultured in DMEM media containing 10% heat inactivated fetal calf serum (FCS). On the day of the study the cells were detached from the plate with a trypsin solution. The collected cells were washed and resuspended at a concentration of 0.25×10^6 cells/ml in DMEM containing 10% FCS. 100 μl of cell suspension were added to 96 well plates and the plates were incubated for 3 hours to allow the cells to adhere. […] The plates were then incubated for 24 hours, pulsed with 10 μl of a 100 μCi/ml ^3H-thymidine and incubated for an additional 24 hours (total incubation time 48 hours). The plates were harvested using a 96 well Harvester (Packard Instruments) and counted on a Packard Top Count Counter. Four parameter logistic curves were fitted to the ^3H-thymidine incorporation as a function of drug molarity using Prism software to determine IC50 values."}, "[10]": {"test_system": "colorectal carcinoma LS174t xenograft", "settings": "tolerated dose 3 mg/kg, same dosing regimen; cited from earlier work"}, "[11]": {"test_system": "CD10 transfected CHO cells, Clone #7", "assay": "3H thymidine proliferation assay, CD10 transfected CHO Clone #7", "protocol": "as §2"}, "[12]": {"test_system": "LNCaP xenograft homogenate", "assay": "Hydrolysis by mouse tumor xenograft homogenates", "format": "biochemical", "settings": "12.5 μg/mL, up to 1 hr, 37° C.", "procedure": "(§1) Soluble protein was measured and results are reported as protein specific activity. The results, illustrated in FIG. 13, indicate the LNCaP cells contain the highest Suc-Ile-Ala-Leu-Dox hydrolyzing activity while HL-60 cells show no Suc-Ile-Ala-Leu-Dox hydrolyzing activity."}, "[13]": {"test_system": "HL-60 xenograft homogenate", "assay": "Hydrolysis by mouse tumor xenograft homogenates", "format": "biochemical", "settings": "12.5 μg/mL, up to 1 hr, 37° C.", "procedure": "as §1"}, "[14]": {"assay": "Second single dose Maximum Tolerated Dose (SD-MTD) study, 49 days", "settings": "mouse, in vivo, iv"}, "[15]": {"settings": "mouse, in vivo, iv, 100 umol/kg", "protocol": "as §3"}, "[16]": {"settings": "mouse, in vivo, iv, 100 umol/kg", "remark": "listed apart in the source", "protocol": "as §3"}}, "note": "Values joined by “and” are separate entries in the source; they are usually repeats but may differ in a detail not shown here. Equal entries are not always repeated. Where two headings read alike, the source gives them in different places."}
{"smiles": "COc1cccc2c1C(=O)c1c(O)c3c(c(O)c1C2=O)C[C@@](O)(C(=O)CO)C[C@@H]3O[C@H]1C[C@H](N)[C@H](O)[C@H](C)O1", "note": "[Doxorubicin, reference compound]", "values": [{"measurement": "mean tumor weight of all mice when terminated", "setting": "[1]; 5 mg/kg Q7DX5", "value": 967, "unit": "mg"}, {"measurement": "Cancer Endpt.", "setting": "[1]; 5 mg/kg Q7DX5", "value": 0}, {"measurement": "% Tumor Growth Inhibition D14", "setting": "[1]; 5 mg/kg i.v. Q7DX5", "value": "D14: 32 ± 16%"}, {"measurement": "Survivor (day 60)", "setting": "[1]; 5 mg/kg i.v. Q7DX5", "value": 1}, {"measurement": "Tumor Weight D14", "setting": "[1]; 5 mg/kg i.v. Q7DX5", "value": "D14: 567 ± 77"}, {"measurement": "IC50", "setting": "[2]", "value": 810, "unit": "nM"}, {"measurement": "IC50", "setting": "[3]; Cricetulus griseus, CHO, read-out: IC50 DB4", "value": 310, "unit": "nM"}, {"measurement": "MTD of doxorubicin alone, estimated from the standard safe efficacious dose", "setting": "[4]", "value": 4, "unit": "mg/kg"}, {"measurement": "IC50", "setting": "[5]; CHO, Tables 25, 26, read-out: IC50 Parental CHO", "value": 510, "unit": "nM"}, {"measurement": "IC50", "setting": "[5]; CHO cells, average, read-out: average IC50 in CHO cells", "value": 570, "unit": "nM"}, {"measurement": "AUC(0-t)", "setting": "[6]", "value": 3.3, "unit": "µM·h"}, {"measurement": "IC50", "setting": "[7]", "value": 550, "unit": "nM"}, {"measurement": "Toxic Endpt.", "setting": "[8]; 3 mg/kg Q6DX2", "value": 1}, {"measurement": "% Tumor Growth Inhibition", "setting": "[8]; 3 mg/kg Q6DX2, Day 12", "value": "21 ± 8", "unit": "%"}, {"measurement": "Tumor Weight", "setting": "[8]; 3 mg/kg Q6DX2, Day 12", "value": "328 ± 35"}, {"measurement": "Survivor (day 22)", "setting": "[8]; 3 mg/kg Q6DX2, groups of ten", "value": 9}, {"measurement": "Toxic Endpt.", "setting": "[8]; 4 mg/kg Q6DX2", "value": 2}, {"measurement": "% Tumor Growth Inhibition", "setting": "[8]; 4 mg/kg Q6DX2, Day 12", "value": "26 ± 6", "unit": "%"}, {"measurement": "Tumor Weight", "setting": "[8]; 4 mg/kg Q6DX2, Day 12", "value": "310 ± 25"}, {"measurement": "Survivor (day 22)", "setting": "[8]; 4 mg/kg Q6DX2, groups of ten", "value": 8}, {"measurement": "IC50", "setting": "[9]; Homo sapiens, HT-29", "value": 52, "unit": "nM"}, {"measurement": "efficacy in LS174t model", "setting": "[10]", "value": "historically ineffective"}, {"measurement": "IC50", "setting": "[11]; Cricetulus griseus, CHO, read-out: IC50 Clone #7", "value": 640, "unit": "nM"}]}
{"smiles": "CC[C@H](C)[C@H](NC(=O)CCC(=O)O)C(=O)N[C@@H](C)C(=O)N[C@@H](CC(C)C)C(=O)N[C@H]1C[C@H](O[C@H]2C[C@](O)(C(=O)CO)Cc3c(O)c4c(c(O)c32)C(=O)c2c(OC)cccc2C4=O)O[C@@H](C)[C@H]1O", "note": "[Suc-Ile-Ala-Leu-Dox]", "values": [{"measurement": "IC50", "setting": "[9]", "value": 47000, "unit": "nM"}, {"measurement": "hydrolyzing activity (protein specific activity)", "setting": "[12]", "value": "highest"}, {"measurement": "hydrolyzing activity (protein specific activity)", "setting": "[13]", "value": "no"}]}
{"smiles": "CC[C@H](C)[C@H](NC(=O)CCNC(=O)CCC(=O)O)C(=O)N[C@@H](C)C(=O)N[C@@H](CC(C)C)C(=O)N[C@H]1C[C@H](O[C@H]2C[C@](O)(C(=O)CO)Cc3c(O)c4c(c(O)c32)C(=O)c2c(OC)cccc2C4=O)O[C@@H](C)[C@H]1O", "note": "[Suc-βAla-Ile-Ala-Leu-Dox]", "values": [{"measurement": "Ratio Suc-β-Ala-Ile-Ala-Leu/Dox", "setting": "[3]; DB4, ratio of IC50", "value": 14}, {"measurement": "Ratio Suc-β-Ala-Ile-Ala-Leu/Dox", "setting": "[5]", "value": 49}, {"measurement": "Ratio Suc-β-Ala-Ile-Ala-Leu/Dox", "setting": "[5]; listed as Suc-β-Ala-Ile-Ala-Leu", "value": 96}, {"measurement": "Ratio Suc-β-Ala-Ile-Ala-Leu/Dox", "setting": "[11]; Clone #7, ratio of IC50", "value": 17}]}
{"smiles": "COc1cccc2c1C(=O)c1c(O)c3c(c(O)c1C2=O)C[C@@](O)(C(=O)CO)C[C@@H]3O[C@H]1C[C@H](NC(=O)[C@H](CC(C)C)NC(=O)[C@H](C)NC(=O)[C@H](CC(C)C)NC(=O)CCNC(=O)CCC(=O)O)[C@H](O)[C@H](C)O1", "note": "[Suc-βAla-Leu-Ala-Leu-Dox]", "values": [{"measurement": "mean tumor weight of all mice when terminated", "setting": "[1]; 59 mg/kg Q7DX5", "value": 232, "unit": "mg"}, {"measurement": "Toxic Endpt.", "setting": "[1]; 59 mg/kg Q7DX5, over 25% weight loss", "value": "7 of 7 and 7"}, {"measurement": "Cancer Endpt.", "setting": "[1]; 59 mg/kg Q7DX5", "value": 0}, {"measurement": "% Tumor Growth Inhibition D14", "setting": "[1]; 59 mg/kg i.v. Q7DX5", "value": "D14: 53 ± 15 %"}, {"measurement": "% Tumor Growth Inhibition D21", "setting": "[1]; 59 mg/kg i.v. Q7DX5", "value": "D21: 66 ± 15 %"}, {"measurement": "Survivor (day 60)", "setting": "[1]; 59 mg/kg i.v. Q7DX5", "value": 0}, {"measurement": "Tumor Weight D14", "setting": "[1]; 59 mg/kg i.v. Q7DX5", "value": "D14: 391 ± 70"}, {"measurement": "Tumor Weight D21", "setting": "[1]; 59 mg/kg i.v. Q7DX5", "value": "D21: 318 ± 67"}, {"measurement": "MTD", "setting": "[14]", "value": 50, "unit": "mg/kg"}, {"measurement": "AUC(0-t)", "setting": "[15]", "value": 806, "unit": "µM·h"}, {"measurement": "Toxic Endpt.", "setting": "[8]; 40 mg/kg Q6DX2", "value": 0}, {"measurement": "Tumor Weight", "setting": "[8]; 40 mg/kg Q6DX2, Day 12", "value": "244 ± 25"}, {"measurement": "Survivor (day 22)", "setting": "[8]; 40 mg/kg Q6DX2, groups of ten", "value": 10}, {"measurement": "Toxic Endpt.", "setting": "[8]; 50 mg/kg Q6DX2", "value": 5}, {"measurement": "Tumor Weight", "setting": "[8]; 50 mg/kg Q6DX2, Day 12", "value": "168 ± 29"}, {"measurement": "Survivor (day 22)", "setting": "[8]; 50 mg/kg Q6DX2, groups of ten", "value": 5}, {"measurement": "Toxic Endpt.", "setting": "[8]; 62 mg/kg Q6DX2", "value": 6}, {"measurement": "Tumor Weight", "setting": "[8]; 62 mg/kg Q6DX2, Day 12", "value": "196 ± 22"}, {"measurement": "Survivor (day 22)", "setting": "[8]; 62 mg/kg Q6DX2, groups of ten", "value": 4}, {"measurement": "Plasma AUC0-6 hr of AL-Dox or AG-Dox*", "setting": "[16]", "value": 3.2, "unit": "µM·h"}, {"measurement": "Plasma AUC0-6 hr of L-Dox or G-Dox*", "setting": "[16]", "value": 40, "unit": "µM·h"}]}
